pEC50, pKi: −log10 of the molar value.
Legend:
[1] = target: isolated recombinant JAK1 kinase domain (Homo sapiens (Human), UniProt P23458); assay: JAK1 enzyme assay (Caliper LabChip, peptide phosphorylation); type: biochemical; conditions: isolated recombinant JAK1 kinase domain, 25 μM ATP
[2] = target: isolated recombinant JAK2 kinase domain (Homo sapiens (Human), UniProt O60674); assay: JAK2 enzyme assay (Caliper LabChip, peptide phosphorylation); type: biochemical; conditions: 25 μM ATP
[3] = test system: JAK1-dependent STAT6 phosphorylation downstream of IL-13 stimulation in TF-1 human erythroleukemia cells; assay: JAK1 pathway assay in TF-1 cells (IL-13-pSTAT6, MSD); type: cell-based; conditions: Homo sapiens, TF-1, TF-1 cells, read-out: IL13-pSTAT6 EC50_TF-1
Procedure, shortened: (§1)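 TF-1 cells are starved of GM-CSF overnight and run in serum-free medium, while BEAS-2B cells stay in complete growth medium. Inhibition of STAT6 phosphorylation is measured by MSD.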

[4] = test system: JAK1-dependent STAT6 phosphorylation downstream of IL-13 stimulation in BEAS-2B human bronchial epithelial cells; assay: JAK1 pathway assay in BEAS-2B cells (IL-13-pSTAT6, MSD); type: cell-based; conditions: read-out: IL13-pSTAT6 EC50 (uM)_BEAS-2B
Procedure, shortened: as §1

[5] = Clearance assay: mouse intravenous (IV) clearance; type: in vivo; conditions: female BALB/c mice; for IV Mouse CL, % of liver blood flow: single IV dose of 1 mg/kg, clearance as % of mouse liver blood flow; for clearance: mouse, plasma, single IV dose of 1 mg/kg via the tail vein, read-out: IV Mouse CL
Description: In certain instances high systemic clearance of a drug substance may be of benefit. For example, in the treatment of pulmonary diseases it may be beneficial to have high drug concentrations in the lung, with lower concentrations in the bloodstream or peripheral organs. In such cases, it may be advantageous to administer a drug substance with high systemic clearance via the inhaled delivery route. This approach may maximize pharmacologic activity of the drug substance in the lung while minimizing the possibility of on-target toxicity elsewhere in the body. The functional groups appended to the 5-chloro-2-difluoromethoxyphenyl pyrazolopyrimidine scaffold affect systemic clearance.
Female BALB/c mice were obtained from Charles River Labs (Hollister, Calif. USA). Twelve animals were given a single IV dose of 1 mg/kg of compounds via the tail vein. A representative dose solution was prepared as follows: the compound was dissolved in a mixture of 5% dimethylsulfoxide (DMSO), 35% polyethylene glycol (PEG 400), and 60% water (v/v/v), respectively, and administered at a dosing volume of 5 mL/kg. Mice weighed approximately 20-25 g at the start of the study. After intravenous administration of compounds, each animal was bled twice via retro-orbital and cardiac puncture. PK time points were collected at 2 min, 5 min, 15 min, 30 min, 1 hr, 2 hr, 4 hr, and 8 hr post-dose. Plasma samples were stored at approximately −80° C. until thawed for LC-MS/MS analysis. PK data analysis was performed on mean plasma concentration-time data and PK parameters were determined by non compartmental methods using WinNonlin® Enterprise, version 5.2.1 (Pharsight Corporation; Mountain View, Calif.).

Sequence of isolated recombinant JAK2 kinase domain (O60674 849-1124): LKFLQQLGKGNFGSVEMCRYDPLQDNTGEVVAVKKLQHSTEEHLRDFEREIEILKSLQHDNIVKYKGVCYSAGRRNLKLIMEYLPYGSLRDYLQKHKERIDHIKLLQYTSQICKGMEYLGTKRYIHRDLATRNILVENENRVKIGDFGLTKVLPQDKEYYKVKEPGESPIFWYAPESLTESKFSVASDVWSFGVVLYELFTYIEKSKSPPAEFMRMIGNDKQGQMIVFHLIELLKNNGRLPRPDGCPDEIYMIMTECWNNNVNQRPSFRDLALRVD
Sequence of isolated recombinant JAK1 kinase domain (P23458 875-1153): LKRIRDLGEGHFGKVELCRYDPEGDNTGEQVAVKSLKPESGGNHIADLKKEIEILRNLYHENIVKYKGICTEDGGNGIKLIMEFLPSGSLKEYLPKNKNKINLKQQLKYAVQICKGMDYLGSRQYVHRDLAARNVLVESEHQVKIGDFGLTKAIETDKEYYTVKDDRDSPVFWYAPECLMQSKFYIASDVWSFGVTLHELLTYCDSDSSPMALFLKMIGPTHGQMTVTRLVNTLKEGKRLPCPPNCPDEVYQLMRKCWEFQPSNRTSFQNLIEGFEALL

Row | SMILES | pKi [1] | pKi [2] | pEC50 [3] | IV Mouse CL, % of liver blood flow [5] [%] | clearance [5] [mL/min/kg] | EC50 [4] [µM]
1 | CN(CCc1ccccc1)C1CCN(C(=O)Cn2cc(NC(=O)c3cnn4cccnc34)c(-c3cc(Cl)ccc3OC(F)F)n2)CC1 [Example 85, N-[3-[5-chloro-2-(difluoromethoxy)phenyl]-1-[2-[4-[methyl(2-phenylethyl)amino]-1-piperidyl]-2-oxo-ethyl]pyrazol-4-yl]pyrazolo[1,5-a]pyrimidine-3-carboxamide] | 9.07 | 8.78 | 7.82 | 61 | 55 | 0.1
2 | CN(Cc1ccccc1)C1CCN(C(=O)Cn2cc(NC(=O)c3cnn4cccnc34)c(-c3cc(Cl)ccc3OC(F)F)n2)CC1 [Example 98, N-[1-[2-[4-[benzyl(methyl)amino]-1-piperidyl]-2-oxo-ethyl]-3-[5-chloro-2-(difluoromethoxy)phenyl]pyrazol-4-yl]pyrazolo[1,5-a]pyrimidine-3-carboxamide] | 9.10 | 8.74 | 8.42 | >100 | 178 | 0.0381
3 | CN(CC(F)(F)F)C1CCN(C(=O)Cn2cc(NC(=O)c3cnn4cccnc34)c(-c3cc(Cl)ccc3OC(F)F)n2)CC1 [Example 99, N-[3-[5-chloro-2-(difluoromethoxy)phenyl]-1-[2-[4-[methyl(2,2,2-trifluoroethyl)amino]-1-piperidyl]-2-oxo-ethyl]pyrazol-4-yl]pyrazolo[1,5-a]pyrimidine-3-carboxamide] | 9.40 | 9.12 | 8.77 | >100 | 234 | 0.0305
4 | CN(CC(F)(F)c1ccccc1)C1CCN(C(=O)Cn2cc(NC(=O)c3cnn4cccnc34)c(-c3cc(Cl)ccc3OC(F)F)n2)CC1 [Example 102, N-[3-[5-chloro-2-(difluoromethoxy)phenyl]-1-[2-[4-[(2,2-difluoro-2-phenyl-ethyl)-methyl-amino]-1-piperidyl]-2-oxo-ethyl]pyrazol-4-yl]pyrazolo[1,5-a]pyrimidine-3-carboxamide] | 9.21 | 8.96 | 8.07 | >100 | 140 | 0.0347
5 | CN(CC(C)(F)F)C1CCN(C(=O)Cn2cc(NC(=O)c3cnn4cccnc34)c(-c3cc(Cl)ccc3OC(F)F)n2)CC1 [Example 134, N-[3-[5-chloro-2-(difluoromethoxy)phenyl]-1-[2-[4-[2,2-difluoropropyl(methyl)amino]-1-piperidyl]-2-oxo-ethyl]pyrazol-4-yl]pyrazolo[1,5-a]pyrimidine-3-carboxamide] | 9.48 | 9.16 | 8.64 | >100 | 222 | 0.0118

Second part, led by results:

Row | pKi [1] | pKi [2] | pEC50 [3] | IV Mouse CL, % of liver blood flow [5] [%] | clearance [5] [mL/min/kg] | SMILES | EC50 [4] [µM]
6 | 9.47 | 9.15 | 8.24 | >100 | 139 | CN(CCC#N)C1CCN(C(=O)Cn2cc(NC(=O)c3cnn4cccnc34)c(-c3cc(Cl)ccc3OC(F)F)n2)CC1 [Example 63, Pyrazolo[1,5-a]pyrimidine-3-carboxylic acid [3-(5-chloro-2-difluoromethoxy-phenyl)-1-(2-{4-[(2-cyano-ethyl)-methyl-amino]-piperidin-1-yl}-2-oxo-ethyl)-1H-pyrazol-4-yl]-amide] | 0.0122
7 | 9.10 | 9.24 | 8.36 | 51 | 46 | CN1CCN(c2nc(-c3cc(Cl)ccc3OC(F)F)c(NC(=O)c3cnn4cccnc34)s2)CC1 [Example 205, Pyrazolo[1,5-a]pyrimidine-3-carboxylic acid [4-(5-chloro-2-difluoromethoxy-phenyl)-2-(4-methyl-piperazin-1-yl)-thiazol-5-yl]-amide] | 0.0338
8 | 9.11 | 9.55 | 8.13 | 71 | 64 | CN(C)CC#Cc1nc(-c2cc(Cl)ccc2OC(F)F)c(NC(=O)c2cnn3cccnc23)s1 [Example 209, Pyrazolo[1,5-a]pyrimidine-3-carboxylic acid [4-(5-chloro-2-difluoromethoxy-phenyl)-2-(3-dimethylamino-prop-1-ynyl)-thiazol-5-yl]-amide] | 0.0415
9 | 9.11 | 8.84 | 8.00 | >100 | 153 | CCN1CCN(C(=O)Cn2cc(NC(=O)c3cnn4cccnc34)c(-c3cc(Cl)ccc3OC(F)F)n2)CC1 [Example 233, Pyrazolo[1,5-a]pyrimidine-3-carboxylic acid {3-(5-chloro-2-difluoromethoxy-phenyl)-1-[2-(4-ethyl-piperazin-1-yl)-2-oxo-ethyl]-1H-pyrazol-4-yl}-amide] | 0.0181
10 | 9.82 | 9.43 | 8.80 | >100 | 219 | O=C(Nc1cn(CC(=O)N2CC=CCC2)nc1-c1cc(Cl)ccc1OC(F)F)c1cnn2cccnc12 [Example 284, N-[3-[5-chloro-2-(difluoromethoxy)phenyl]-1-[2-(3,6-dihydro-2H-pyridin-1-yl)-2-oxo-ethyl]pyrazol-4-yl]pyrazolo[1,5-a]pyrimidine-3-carboxamide] | 0.0125
11 | 9.05 | 9.24 | 8.21 | >100 | 95 | COCCNCCn1cc(NC(=O)c2cnn3cccnc23)c(-c2cc(Cl)ccc2OC(F)F)n1 [Example 294, N-[3-[5-chloro-2-(difluoromethoxy)phenyl]-1-[2-(2-methoxyethylamino)ethyl]pyrazol-4-yl]pyrazolo[1,5-a]pyrimidine-3-carboxamide] | 0.0367
